The values that follow come from patent publication US20220401500A1, “BACTERIA AND HERBAL EXTRACT NUTRACEUTICAL BLENDS FOR LUNG HEALTH MAINTENANCE” (THE UAB RESEARCH FOUNDATION, priority 2021, published 2022).

Experiment [1] concerns C57BL/6 mouse pups. Briefly: In vivo (mouse) dysbiosis model of chronic lung disease, LPS-treated pups.
Experiment [2] concerns probiotic strains RSB11, RSB12, or RSB13. Put plainly: Culture growth of probiotic strains with herbal extracts or Vitamin D. The experiment is classed as cell-based, Lactobacillus. Conditions: number of colonies per plate; FIG. 11.
The test system of experiment [3] is Ac-PGP. Briefly: Loss of function of Ac-PGP by treatment with RTR in vivo. Further details: species or system mouse.
The subject of experiment [4] is mice.

In the case of lipopolysaccharide [LPS], the Ac-PGP levels result in experiment [1] (BALF, by HPLC, vs controls, P<0.05, FIG. 7E) was “significantly increased”. Moreover, in experiment [1] (BALF, vs controls, P<0.05, FIG. 7C), the “myeloperoxidase (MPO) levels” value was “significantly increased”. In addition, the “neutrophil elastase (NE) levels” value in experiment [1] (BALF, vs controls, P<0.05, FIG. 7D) was “significantly increased”. Moreover, the lung tissue structure result in experiment [1] (LPS-treated C57BL/6 mouse pups, FIG. 7A) is “alveolar hypoplasia and simplification”. In experiment [1] (vs controls, P<0.05, FIG. 7B), the “radial alveolar counts (RAC)” value is recorded as “significantly decreased”.
As to Vitamin D, the “culture growth of probiotic strains RSB11, RSB12, RSB13” value in experiment [2] is “do not have an inhibitory effect”.
With Arginine-Threonine-Arginine [RTR], the chronic lung disease entry in experiment [3] (in vivo, FIG. 9) is recorded as “protective”. In experiment [3] (noxious stimuli, LPS+RTR vs LPS alone, P<0.05, FIG. 9B), the RAC entry is “significantly higher”. The MPO concentrations entry in experiment [3] (noxious stimuli, LPS+RTR vs LPS alone, P<0.05, FIG. 9C) is on record as “significantly lower”. Besides, the RVH result in experiment [3] (noxious stimuli, LPS+RTR vs LPS alone, P<0.05, FIG. 9D) is “significantly less severe”.
In the case of “N-acetyl-Proline-Glycine-Proline [Ac-PGP]”, in experiment [4] (BALF, normoxia and noxious stimuli, P<0.05, FIG. 8C), the NE concentrations result is reported as “increased”. In addition, the MPO concentration entry in experiment [4] (ELISA, normoxia and noxious stimuli, P<0.05, FIG. 8B) is “increased”. The chronic lung disease entry in experiment [4] (gain of function, in vivo, FIG. 8) was “causes chronic lung disease”. Moreover, the RAC counts entry in experiment [4] (normoxia and noxious stimuli, P<0.05, FIG. 8A) is “decreased”. Further, in experiment [4] (normoxia and noxious stimuli, P<0.05, FIG. 8D), the “right ventricular hypertrophy (RVH)” value is recorded as “increased”.
